Measurements reported in PubChem BioAssay (NCI).
“And” between values parts separate entries of the source, which are not always exact repeats. Identical values can stand only once.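 Briefly, cells in 96-well plates were exposed to five compound concentrations for 48 h, and endpoints were estimated by linear interpolation. GI50: concentration for 50% inhibition of growth. TGI: concentration producing complete growth inhibition.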

Assays:
Test in all cases: NCI anticancer screen, dose series, 48 h
SK-MEL-5 melanoma = test system: SK-MEL-5 melanoma
HCT-116 colon = test system: HCT-116 colon
SF-295 CNS = test system: SF-295 CNS
HT29 colon = test system: HT29 colon
ACHN renal = test system: ACHN renal
DU-145 prostate = test system: DU-145 prostate
HCT-15 colon = test system: HCT-15 colon
U251 CNS = test system: U251 CNS
MCF7 breast = test system: MCF7 breast
KM12 colon = test system: KM12 colon
BT-549 breast = test system: BT-549 breast
A549 NSCLC = test system: A549 NSCLC
CAKI-1 renal = test system: CAKI-1 renal
IGROV1 ovarian = test system: IGROV1 ovarian
SNB-19 CNS = test system: SNB-19 CNS
SF-268 CNS = test system: SF-268 CNS
SNB-75 CNS = test system: SNB-75 CNS
UO-31 renal = test system: UO-31 renal
NCI-H460 lung = test system: NCI-H460 lung
SF-539 CNS = test system: SF-539 CNS
SR leukemia = test system: SR leukemia
MDA-MB-231 breast = test system: MDA-MB-231 breast
PC-3 prostate = test system: PC-3 prostate
MALME-3M melanoma = test system: MALME-3M melanoma
UACC-257 melanoma = test system: UACC-257 melanoma
SK-MEL-28 melanoma = test system: SK-MEL-28 melanoma
HOP-62 NSCLC = test system: HOP-62 NSCLC
OVCAR-5 ovarian = test system: OVCAR-5 ovarian
UACC-62 melanoma = test system: UACC-62 melanoma
NCI-H226 lung = test system: NCI-H226 lung
HOP-92 NSCLC = test system: HOP-92 NSCLC
HS 578T breast = test system: HS 578T breast
CCRF-CEM leukemia = test system: CCRF-CEM leukemia
SW-620 colon = test system: SW-620 colon
T-47D breast = test system: T-47D breast
LOX IMVI melanoma = test system: LOX IMVI melanoma
COLO 205 colon = test system: COLO 205 colon
MOLT-4 leukemia = test system: MOLT-4 leukemia
OVCAR-8 ovarian = test system: OVCAR-8 ovarian
RXF 393 renal = test system: RXF 393 renal
HL-60(TB) leukemia = test system: HL-60(TB) leukemia
OVCAR-3 ovarian = test system: OVCAR-3 ovarian
786-0 renal = test system: 786-0 renal
SK-OV-3 ovarian = test system: SK-OV-3 ovarian
NCI-H522 lung = test system: NCI-H522 lung
M14 melanoma = test system: M14 melanoma
HCC-2998 colon = test system: HCC-2998 colon
SN12C renal = test system: SN12C renal
A498 renal = test system: A498 renal
OVCAR-4 ovarian = test system: OVCAR-4 ovarian
MDA-MB-435 = test system: MDA-MB-435
NCI-H23 lung = test system: NCI-H23 lung
RPMI-8226 leukemia = test system: RPMI-8226 leukemia
TK-10 renal = test system: TK-10 renal
SK-MEL-2 melanoma = test system: SK-MEL-2 melanoma
NCI/ADR-RES ovarian = test system: NCI/ADR-RES ovarian
K-562 leukemia = test system: K-562 leukemia

CCCCCc1c(C)[nH]c(/C=C2\N=C(c3ccc[nH]3)C=C2Oc2ccccc2)c1C
GI50 (SK-MEL-5 melanoma): 16.7 nM and 10.9 nM | TGI (SK-MEL-5 melanoma): 34 nM and 24 nM | GI50 (HCT-116 colon): 22.8 nM | TGI (HCT-116 colon): 129 nM | GI50 (SF-295 CNS): 24.4 nM | TGI (SF-295 CNS): 106 nM | GI50 (HT29 colon): 22.6 nM | TGI (HT29 colon): 1370 nM and 1300 nM | GI50 (ACHN renal): 17.3 nM | TGI (ACHN renal): 111 nM | GI50 (DU-145 prostate): 17.7 nM | TGI (DU-145 prostate): 129 nM and 104 nM | GI50 (HCT-15 colon): 19.6 nM | TGI (HCT-15 colon): 79.8 nM and 41.3 nM | GI50 (U251 CNS): 19 nM | TGI (U251 CNS): 104 nM and 27.9 nM | GI50 (MCF7 breast): 32.6 nM | TGI (MCF7 breast): 442 nM and 1050 nM | GI50 (KM12 colon): 11.3 nM | TGI (KM12 colon): 49.4 nM and 13.8 nM | GI50 (BT-549 breast): 40.2 nM and 28.3 nM | TGI (BT-549 breast): 538 nM and 1050 nM | GI50 (A549 NSCLC): 22 nM and 11.7 nM | TGI (A549 NSCLC): 56.9 nM and 40.1 nM | GI50 (CAKI-1 renal): 23.3 nM | TGI (CAKI-1 renal): 55.8 nM and 40.4 nM | GI50 (IGROV1 ovarian): 39.1 nM and 24.4 nM | TGI (IGROV1 ovarian): 1490 nM and 1230 nM | GI50 (SNB-19 CNS): 58.2 nM and 38.7 nM | TGI (SNB-19 CNS): 1460 nM and 1440 nM | GI50 (SF-268 CNS): 23.4 nM | TGI (SF-268 CNS): 1240 nM and 1000 nM | GI50 (SNB-75 CNS): 24.6 nM and 17.5 nM | TGI (SNB-75 CNS): 71.9 nM and 55.9 nM | GI50 (UO-31 renal): 25.1 nM and 10.4 nM | TGI (UO-31 renal): 109 nM and 24 nM | GI50 (NCI-H460 lung): 23.1 nM | TGI (NCI-H460 lung): 1160 nM and 1050 nM | GI50 (SF-539 CNS): 24.2 nM and 11.3 nM | TGI (SF-539 CNS): 85.6 nM and 38.7 nM | GI50 (SR leukemia): 11.7 nM | GI50 (MDA-MB-231 breast): 5.56 nM | TGI (MDA-MB-231 breast): 29.5 nM and 18.1 nM | GI50 (PC-3 prostate): 30.6 nM | TGI (PC-3 prostate): 1220 nM and 166 nM | GI50 (MALME-3M melanoma): 42.4 nM and 28.6 nM | TGI (MALME-3M melanoma): 204 nM and 115 nM | GI50 (UACC-257 melanoma): 45.4 nM and 30 nM | TGI (UACC-257 melanoma): 354 nM and 233 nM | GI50 (SK-MEL-28 melanoma): 39.8 nM and 21.1 nM | TGI (SK-MEL-28 melanoma): 192 nM and 101 nM | GI50 (HOP-62 NSCLC): 32.2 nM and 27.2 nM | TGI (HOP-62 NSCLC): 1890 nM and 1180 nM | GI50 (OVCAR-5 ovarian): 26.2 nM and 10.9 nM | TGI (OVCAR-5 ovarian): 1070 nM and 377 nM | GI50 (UACC-62 melanoma): 16.1 nM and 11.1 nM | TGI (UACC-62 melanoma): 31.1 nM and 27.4 nM | GI50 (NCI-H226 lung): 19.1 nM and 74.5 nM | GI50 (HOP-92 NSCLC): 13.8 nM | TGI (HOP-92 NSCLC): 57.7 nM and 32.6 nM | GI50 (HS 578T breast): 21.3 nM and 11.1 nM | TGI (HS 578T breast): 92.5 nM and 48.7 nM | GI50 (CCRF-CEM leukemia): 9.49 nM | TGI (CCRF-CEM leukemia): 1210 nM and 2160 nM | GI50 (SW-620 colon): 24.8 nM | GI50 (T-47D breast): 21.1 nM and 14.7 nM | GI50 (LOX IMVI melanoma): 14.3 nM | TGI (LOX IMVI melanoma): 31.2 nM | GI50 (COLO 205 colon): 30.5 nM | TGI (COLO 205 colon): 193 nM and 49.2 nM | GI50 (MOLT-4 leukemia): 25.4 nM and 13 nM | TGI (MOLT-4 leukemia): 355 nM and 78.3 nM | GI50 (OVCAR-8 ovarian): 27.7 nM and 15 nM | TGI (OVCAR-8 ovarian): 138 nM and 56.7 nM | GI50 (RXF 393 renal): 17.2 nM and 12.3 nM | TGI (RXF 393 renal): 157 nM and 54.6 nM | GI50 (HL-60(TB) leukemia): 38.4 nM and 15 nM | TGI (HL-60(TB) leukemia): 343 nM and 65.6 nM | GI50 (OVCAR-3 ovarian): 19.1 nM and 12.2 nM | TGI (OVCAR-3 ovarian): 64.2 nM and 40.4 nM | GI50 (786-0 renal): 17.2 nM and 11.8 nM | TGI (786-0 renal): 43.9 nM and 45.7 nM | GI50 (SK-OV-3 ovarian): 56.5 nM and 30.9 nM | TGI (SK-OV-3 ovarian): 671 nM and 628 nM | GI50 (NCI-H522 lung): 18.2 nM and 18.1 nM | TGI (NCI-H522 lung): 101 nM and 168 nM | GI50 (M14 melanoma): 21.3 nM and 10.3 nM | TGI (M14 melanoma): 50.4 nM and 32.2 nM | GI50 (HCC-2998 colon): 17.1 nM | TGI (HCC-2998 colon): 217 nM and 1000 nM | GI50 (SN12C renal): 36.3 nM and 18 nM | TGI (SN12C renal): 232 nM and 144 nM | GI50 (A498 renal): 16.1 nM and 12.7 nM | TGI (A498 renal): 69 nM and 50.8 nM | GI50 (OVCAR-4 ovarian): 11.3 nM | TGI (OVCAR-4 ovarian): 265 nM and 1220 nM | GI50 (MDA-MB-435): 21.8 nM | TGI (MDA-MB-435): 58 nM | GI50 (NCI-H23 lung): 29.9 nM and 16 nM | TGI (NCI-H23 lung): 668 nM and 387 nM | GI50 (RPMI-8226 leukemia): 22.2 nM | TGI (RPMI-8226 leukemia): 187 nM and 182 nM | GI50 (TK-10 renal): 44.6 nM and 23.4 nM | TGI (TK-10 renal): 448 nM and 152 nM | GI50 (SK-MEL-2 melanoma): 17.9 nM and 13.9 nM | TGI (SK-MEL-2 melanoma): 40.2 nM and 32.9 nM | GI50 (NCI/ADR-RES ovarian): 48.6 nM and 27.8 nM | TGI (NCI/ADR-RES ovarian): 255 nM and 174 nM | GI50 (K-562 leukemia): 26.3 nM | TGI (K-562 leukemia): 3410 nM
